Here are results for two molecules from patent US6352982B1, “4,1-benzoxazepines, their analogues, and their use as somatostatin agonists” (Takeda Chemical Industries, Ltd., priority 1997, dated 2002).

Counter-ions that a name gives are not always drawn.

Common to all, as to format: cell-based
Test [1] has as its target T1, human somatostatin receptor SSTR2 (Homo sapiens, UniProt P30874).
T1 construct: expressed in transfected cells; host or cells: CHO (dhfr-) cells, strain SSTR2-HS5-9
The experiment in a line: Inhibition of forskolin-stimulated accumulation of cAMP in receptor expression CHO cells. The note with it: forskolin 10 μM, 37° C. for 30 minutes, read-out: Inhibitory effect on forskolin-stimulated accumulation of cAMP (ED50 value) SSTR2. The procedure: (§1) For measurement of the accumulated intracellular adenosine 3′,5′-monophosphate (cAMP), the human somatostatin receptor expression cell strains, SSTR2-HS5-9, SSTR-3-15-19, SSTR4-1-2 and SSTR5-32-4, mentioned in Reference Examples 2-3, 3-3,4-3 and 5-3, respectively, were proliferated in 24-well plate until they were confluent. Said cells were washed twice with 1 ml of Medium A [Dulbecco's Modified Eagle Medium (DMEM), 20 mM 2-(4-(2-hydroxyethyl)-1-piperazinyl]ethanesulfonic acid (HEPES) (pH 7.5), 0.2% bovine serum albumin and 0.2 mM 3-isobutyl-1-methylxanthine (IBMX)]. The medium A was placed in wells each in quantity of 400 μl and incubated at 37° C. for an hour. A solution of the compounds of Example 5 and Example 102 (solution obtained by diluting with Medium A to the 10-fold concentration of the final concentration) and a forskolin solution (final concentration 10 μM) were placed in wells each in quantities of 50 μl and 50 μl, respectively, and incubated at 37° C. for 30 minutes. The cells were washed twice with 1 ml of Medium A. Medium A (500 μl) and 100 μl of a 20% aqueous perchloric acid solution were placed in each well and left standing for 20 minutes at 4° C. to lyse the cells. The lyzate was placed in an Eppendorf's tube and centrifuged (15.000 rpm, for 10 minutes). The supernatant was placed in another Eppendorf's tube in quantity of 500 μl and neutralized with 60 mM of a HEPES aqueous solution containing 1.5 M of potassium chloride. The content of cAMP contained in this extract was determined by the Amersham kit (cAMP EIA system).

For test [2], the target named is T2, human somatostatin receptor SSTR3 (Homo sapiens, UniProt P32745).
T2 construct: expressed in transfected cells; host or cells: CHO (dhfr-) cells, strain SSTR3-15-19
The description is as above. The note with it: forskolin 10 μM, 37° C. for 30 minutes, read-out: Inhibitory effect on forskolin-stimulated accumulation of cAMP (ED50 value) SSTR3. The procedure: as §1

The target of test [3] is T3, human somatostatin receptor SSTR4 (Homo sapiens, UniProt P31391).
T3 construct: expressed in transfected cells; host or cells: CHO (dhfr-) cells, strain SSTR4-1-2
The test is described as above. The note with it: forskolin 10 μM, 37° C. for 30 minutes, read-out: Inhibitory effect on forskolin-stimulated accumulation of cAMP (ED50 value) SSTR4. Here is the method: as §1

In test [4] the target is T4, human somatostatin receptor SSTR5 (Homo sapiens, UniProt P35346).
T4 construct: expressed in transfected cells; host or cells: CHO (dhfr-) cells, strain SSTR5-3-2-4 (also printed SSTR5-32-4)
The test is described as above. Conditions: forskolin 10 μM, 37° C. for 30 minutes, read-out: Inhibitory effect on forskolin-stimulated accumulation of cAMP (ED50 value) SSTR5. The procedure:
as §1

Test [5] relates to primary cell culture of the rat anterior pituitary. Description: Inhibition of growth hormone (GH) secretion from primary cell culture. Conditions: GHRH-stimulated, 37° C. for 3 hours; for EC50: Rattus norvegicus, GH by RIA, read-out: ED50 values, inhibition of GH secretion. The procedure: The anterior pituitaries were excised from the decapitated skull of 40 unanesthetized male rats of 8 weeks of age. The anterior pituitaries were placed in a laboratory dish containing the buffer A (consisting of 137 mM of sodium chloride, 5 mM of potassium chloride, 0.7 mM of disodium hydrogen phosphate, 25 mM of 2-[4-(2-hydroxyethyl)-1-piperazinyl]ethane sulfonic acid (HEPES) (pH 7.3), and 50 μg/ml of gentamicin sulfate] and washed once with the buffer A. Each anterior pituitary was cut into 4 pieces by scissors and washed twice again. The pieces of the anterior pituitaries were incubated in 30 ml of Enzyme Solution I [buffer A solution containing 0.4% of collagenase (Boehringer Mannheim), 0.4% of bovine serum albumin, 10 μg/ml of deoxyribonuclease (Sigma) and 0.2% of glucose] at 37° C. under shaking for 1 hour. After dispersion of the pieces of the anterior pituitaries by a Komagome pipette, the solution was centrifuged (480×g, for 6 minutes). The supernatant was discarded. The sediment was suspended in 30 ml of Enzyme Solution II [buffer A solution containing 0.25% of pancreatin (Sigma)] and incubated at 37° C. under shaking for 8 minutes. After adding 2 ml of fetal calf serum, the cell suspension was centrifuged (480×g, for 6 minutes) again and the supernatant was discarded. The sediment was suspended in 10 ml of Medium I [Dulbecco modified Eagle's Medium (DMEM) containing 10% of fetal calf serum, 20 mM of HEPES (pH 7.3), 50 U/ml of penicillin G and 50 μg/ml of streptomycin] and filtered through nylon mesh. The cells thus obtained were washed twice with 10 ml of Medium I. The number of the cells was counted, and the cells were suspended in Medium I in the cell density of 1.5×10^5 cells/ml. The aliquots of 1 ml each of the cell suspension were placed in the wells of 24-well plate and incubated at 37° C. for 3 days in the carbon dioxide incubator under 5% carbon dioxide-95% air environment. The cells were washed twice with 1 ml of Medium II (Medium I containing 0.2% bovine serum albumin instead of 10% fetal calf serum) and then incubated in 1 ml of Medium II for 1 hour. The supernatant was discarded. To each well of the 24-well plate 0.8 ml each of Medium II was added, and 0.1 ml of Medium II containing somatostatin-14 (SS-14) or the compound of Example 5 or the compound of Example 102 in the concentration of 10 times the final concentration and 0.1 ml of 10 nM growth hormone releasing hormone (GHRH) were added thereto. After incubation at 37° C. for 3 hours, 0.6 ml of the supernatant of the each well was collected to obtain a supernatant solution by the centrifugation on 1,000×g for 8 minutes. GH concentrations in the supernatant were determined by radioimmunoassay (RIA) kit of Amersham.

T2 sequence (P32745 whole entry): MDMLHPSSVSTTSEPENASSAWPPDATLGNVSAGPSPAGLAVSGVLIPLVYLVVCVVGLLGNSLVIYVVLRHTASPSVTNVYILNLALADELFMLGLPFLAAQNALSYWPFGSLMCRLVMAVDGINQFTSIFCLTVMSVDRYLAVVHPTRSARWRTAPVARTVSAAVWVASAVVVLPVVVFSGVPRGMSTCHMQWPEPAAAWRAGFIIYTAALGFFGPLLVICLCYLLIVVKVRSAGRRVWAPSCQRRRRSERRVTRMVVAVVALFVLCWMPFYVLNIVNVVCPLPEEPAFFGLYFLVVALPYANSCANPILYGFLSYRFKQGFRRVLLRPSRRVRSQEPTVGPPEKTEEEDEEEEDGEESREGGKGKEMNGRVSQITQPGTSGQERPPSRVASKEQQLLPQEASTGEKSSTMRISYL
T3 sequence (P31391 whole entry): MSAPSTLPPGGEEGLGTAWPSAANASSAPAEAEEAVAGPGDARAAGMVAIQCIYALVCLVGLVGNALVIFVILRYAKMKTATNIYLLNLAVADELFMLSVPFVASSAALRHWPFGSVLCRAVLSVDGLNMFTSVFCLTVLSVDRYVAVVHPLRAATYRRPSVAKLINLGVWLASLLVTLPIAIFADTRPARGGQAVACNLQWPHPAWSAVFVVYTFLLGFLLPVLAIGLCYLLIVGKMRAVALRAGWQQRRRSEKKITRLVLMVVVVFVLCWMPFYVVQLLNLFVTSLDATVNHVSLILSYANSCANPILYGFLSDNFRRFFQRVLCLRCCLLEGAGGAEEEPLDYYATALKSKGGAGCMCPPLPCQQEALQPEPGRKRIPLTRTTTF
T4 sequence (P35346 whole entry): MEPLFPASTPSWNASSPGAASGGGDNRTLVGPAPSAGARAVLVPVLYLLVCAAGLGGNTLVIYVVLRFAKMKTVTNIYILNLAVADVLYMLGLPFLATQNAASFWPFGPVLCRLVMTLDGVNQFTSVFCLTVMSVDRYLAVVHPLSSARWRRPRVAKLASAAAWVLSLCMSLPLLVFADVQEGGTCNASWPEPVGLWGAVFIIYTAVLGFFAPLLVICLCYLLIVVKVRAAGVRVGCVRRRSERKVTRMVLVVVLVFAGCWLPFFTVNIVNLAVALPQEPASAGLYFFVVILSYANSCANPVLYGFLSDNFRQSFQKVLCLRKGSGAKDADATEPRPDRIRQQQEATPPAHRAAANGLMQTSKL
T1 sequence (P30874 whole entry): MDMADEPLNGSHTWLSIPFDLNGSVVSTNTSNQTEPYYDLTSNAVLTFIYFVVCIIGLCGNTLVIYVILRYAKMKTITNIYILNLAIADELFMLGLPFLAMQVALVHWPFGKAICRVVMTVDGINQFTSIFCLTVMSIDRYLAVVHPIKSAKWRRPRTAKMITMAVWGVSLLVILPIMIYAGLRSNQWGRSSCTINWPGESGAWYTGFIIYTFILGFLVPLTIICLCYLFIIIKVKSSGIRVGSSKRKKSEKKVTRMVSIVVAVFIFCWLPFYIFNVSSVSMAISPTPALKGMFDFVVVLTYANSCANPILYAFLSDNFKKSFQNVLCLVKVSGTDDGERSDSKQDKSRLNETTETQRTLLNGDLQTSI

On to `NCc1cccc(C2OC(CC(=O)NCc3ccccc3F)C(=O)N(Cc3ccc(-c4ccccc4)cc3)c3ccc(Cl)cc32)c1` (stereo not drawn) [Example 5, 3,5-Trans-N-(2-fluorobenzyl)-5-(3-aminomethylphenyl)-1-(4-biphenylmethyl)-7-chloro-2-oxo-1,2,3,5-tetrahydro-4,1-benzoxazepine-3-acetamide•monohydrochloride], for which the EC50 in test [1] worked out at 300 nM; in test [2], 2 nM; in test [3] it was 200 nM; in test [4], 0.7 nM; in test [5], 8 nM. Further, in test [5], the “GH secretion from the primary cell culture of rat anterior pituitary” value is recorded as “inhibited dose-dependently”.
As for `NCc1cccc(C2OC(CC(=O)NCc3ccccc3F)C(=O)N(Cc3ccc(O)cc3)c3ccc(Cl)cc32)c1` (stereo not drawn) [Example 102, 3,5-Trans-N-(2-fluorobenzyl)-5-(3-aminomethylphenyl)-7-chloro-1-(4-hydroxybenzyl)-2-oxo-1,2,3,5-tetrahydro-4,1-benzoxazepine-3-acetamide•monohydrochloride], the EC50 was 200 nM in test [1]; 0.3 nM in test [2]; 100 nM in test [3]; 0.3 nM in test [4]; 10 nM in test [5]. Also, in test [5], the “GH secretion from the primary cell culture of rat anterior pituitary” value is recorded as “inhibited dose-dependently”.
